# Source: EP1690531A2, “Dosage form and method for administering drug” (ALZA CORPORATION, priority 1996, dated 1998)
# Columns and labels:
# [1] = Clinical study of sustained-ascending versus three-times-a-day immediate release methylphenidate (behavior, combined attention); format: in vivo, human
# Method: (§1) The CLAM Test is a behavior rating that indicates social conformity or rebellion as developed by Conners, Lonez, and Milch and SKAMP is a rating that also measures behavior as developed by Swanson and reported in Psychopharmacological Bulletin, Vol. 21, pp. 887-890 (1985).
# (§2) The effect measurements in this study were: (1) observer ratings on SKAMP scale (during classroom time) and (2) performance on the computerized mathematics test. Each child was tested on the mathematics test before the study began, and based on this pre-test during the study, a mathematics test appropriate for each child's ability was given. The morning and evening parent CLAM assessments were used to identify unusual behaviors. The evening parent CLAM was used to determine the presence of treatment effects in the evening hours, particularly treatment effects on the time the child fell asleep, and whether the child's sleep was interrupted. All of the children also wore an activity monitor (Actigraph) which records the movements of the child throughout the day. The activity (number of movements per minute) is recorded electronically and modeled as a function of the drug effect.
# The results of a clinical study that comprises administering methylphenidate according to two distinct delivery programs are reported in this example. In the study, a sustained-ascending profile corresponds to administering methylphenidate as follows: 8 mg at zero hours, 1.4 mg at 1.5 hours, 1.4 mg at 2.0 hours, 1.7 mg at 2.5 hours, 1.7 mg at 3.0 hours, 2.0 mg at 3.5 hours, 2.0 mg at 4.0 hours, 2.2 mg at 4.5 hours, 2.2 mg at 5.0 hours, 2.2 mg at 5.5 hours, 2.2 mg at 6.0 hours, 2.4 mg at 6.5 hours, 2.4 mg at 7.0 hours, 2.6 mg at 7.5 hours, and 1.9 mg at 8.0 hours. The methylphenidate was administered in overcoated capsules comprising a total of 36 mg of methylphenidate with 22% in the exterior overcoat. The ascending dose was administered with the first dose at 0730 followed by ascending doses every 30 minutes until 1530 to produce the intended ascending plasma concentration. […]
# [2] = Clinical study of methylphenidate delivery profiles in school children (SKAMP, CLAM, mathematics test, activity monitor); format: in vivo, human; details: 36 school children
# Method: as §1, §2
# The immediate release tablet and the sustained-release dosage form were compared to a sustained-release dosage form that administered methylphenidate in an ascending profile. The sustained-release ascending profile corresponds to administering 4.2 mg at zero hour, 1.1 mg at 1.5 hours, 1.1 mg at 2 hours, 1.2 mg at 2.5 hours, 1.2 mg at 3.0 hours, 1.3 mg at 3.5 hours, 1.3 mg at 4 hours, 1.5 mg at 4.5 hours, 1.5 mg at 5 hours, 1.8 mg at 5.5 hours, 1.8 mg at 6 hours, and 2.0 mg at 6.5 hours, to produce the sustained-ascending release dotted line profile seen in Figure 2.
# The accompanying figures present the results of the above-described study. […]
smiles,measurement,setting,value
COC(=O)C(c1ccccc1)C1CCCCN1 (stereo not drawn) [methylphenidate],"behavior, acquired tolerance","[1]; sustained ascending program, 36 mg total, 0730 to 1530, 32 children with attention deficient hyperactivity disorder, Figure 7",absence of acquired tolerance
same,"combined attention parameter, developed tolerance","[1]; sustained-ascending release, 36 mg total, 32 children, Figure 8",essentially free of developed tolerance
same,"combined attention parameter, acquired tolerance","[1]; three daily immediate release, 10 mg at 0730, 1130 and 1530, 32 children, Figure 8",with acquired tolerance
same,therapeutic effect and tolerance,[2]; controlled-sustained ascending profile (4.2 mg at zero hour rising to 2.0 mg at 6.5 hours),the desired therapeutic effect without tolerance
same,"clinical effect (activity, mathematical scores, inappropriate behavior)","[2]; sustained-nonascending dose, 20 mg methylphenidate (8.3 mg at zero hour then 0.9 mg every 0.5 h to 7.5 hours)","a decrease in activity, higher mathematical scores and a lessening of inappropriate behavior"
same,acute tolerance,"[2]; sustained-nonascending dose, 20 mg methylphenidate",development of acute tolerance
